Reference: the kinase profiling compilation of Christmann-Franck et al. (2016)

Legend:
Assay in all cases: KINOMEscan competition binding
[1] = molecular target: MAP3K12 (human) (UniProt Q12852)
[2] = molecular target: MYLK3 (human) (UniProt Q32MK0)
[3] = molecular target: ERBB4 (human) (UniProt Q15303)
Sequence of ERBB4 (human) (Q15303 whole entry, looked up): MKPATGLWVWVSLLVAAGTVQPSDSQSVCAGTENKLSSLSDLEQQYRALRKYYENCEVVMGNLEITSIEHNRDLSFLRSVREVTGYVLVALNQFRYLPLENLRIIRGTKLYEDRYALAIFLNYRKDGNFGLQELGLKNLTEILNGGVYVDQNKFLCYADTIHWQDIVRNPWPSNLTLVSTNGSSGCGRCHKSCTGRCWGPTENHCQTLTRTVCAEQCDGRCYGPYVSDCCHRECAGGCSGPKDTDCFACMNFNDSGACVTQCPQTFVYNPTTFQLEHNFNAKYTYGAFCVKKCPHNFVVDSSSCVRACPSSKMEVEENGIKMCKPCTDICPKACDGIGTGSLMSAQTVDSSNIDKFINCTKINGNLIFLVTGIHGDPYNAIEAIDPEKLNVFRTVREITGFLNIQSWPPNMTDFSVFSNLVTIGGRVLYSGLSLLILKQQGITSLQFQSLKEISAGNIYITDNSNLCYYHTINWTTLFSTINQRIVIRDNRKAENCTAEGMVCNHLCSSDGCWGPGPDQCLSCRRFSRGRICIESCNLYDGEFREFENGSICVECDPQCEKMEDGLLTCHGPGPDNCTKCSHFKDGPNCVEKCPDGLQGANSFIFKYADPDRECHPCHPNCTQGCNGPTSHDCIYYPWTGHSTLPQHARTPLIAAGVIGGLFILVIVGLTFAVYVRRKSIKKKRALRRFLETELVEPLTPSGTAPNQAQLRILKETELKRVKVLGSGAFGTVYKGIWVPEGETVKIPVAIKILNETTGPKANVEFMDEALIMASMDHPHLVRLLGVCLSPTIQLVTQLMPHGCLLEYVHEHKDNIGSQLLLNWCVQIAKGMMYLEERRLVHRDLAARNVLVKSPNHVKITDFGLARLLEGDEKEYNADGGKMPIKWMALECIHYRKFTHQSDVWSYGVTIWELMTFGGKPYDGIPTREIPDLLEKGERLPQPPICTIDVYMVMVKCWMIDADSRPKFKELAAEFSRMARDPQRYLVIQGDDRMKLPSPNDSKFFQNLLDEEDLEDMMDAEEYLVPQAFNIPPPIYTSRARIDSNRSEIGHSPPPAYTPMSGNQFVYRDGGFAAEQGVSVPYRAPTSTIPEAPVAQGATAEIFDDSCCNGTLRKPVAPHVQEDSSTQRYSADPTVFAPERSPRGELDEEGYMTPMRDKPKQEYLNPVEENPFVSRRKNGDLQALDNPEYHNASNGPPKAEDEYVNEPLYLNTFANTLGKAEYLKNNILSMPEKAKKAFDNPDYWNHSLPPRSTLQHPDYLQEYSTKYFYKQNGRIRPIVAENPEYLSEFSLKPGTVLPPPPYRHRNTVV

Sequence of MAP3K12 (human) (Q12852 whole entry, looked up): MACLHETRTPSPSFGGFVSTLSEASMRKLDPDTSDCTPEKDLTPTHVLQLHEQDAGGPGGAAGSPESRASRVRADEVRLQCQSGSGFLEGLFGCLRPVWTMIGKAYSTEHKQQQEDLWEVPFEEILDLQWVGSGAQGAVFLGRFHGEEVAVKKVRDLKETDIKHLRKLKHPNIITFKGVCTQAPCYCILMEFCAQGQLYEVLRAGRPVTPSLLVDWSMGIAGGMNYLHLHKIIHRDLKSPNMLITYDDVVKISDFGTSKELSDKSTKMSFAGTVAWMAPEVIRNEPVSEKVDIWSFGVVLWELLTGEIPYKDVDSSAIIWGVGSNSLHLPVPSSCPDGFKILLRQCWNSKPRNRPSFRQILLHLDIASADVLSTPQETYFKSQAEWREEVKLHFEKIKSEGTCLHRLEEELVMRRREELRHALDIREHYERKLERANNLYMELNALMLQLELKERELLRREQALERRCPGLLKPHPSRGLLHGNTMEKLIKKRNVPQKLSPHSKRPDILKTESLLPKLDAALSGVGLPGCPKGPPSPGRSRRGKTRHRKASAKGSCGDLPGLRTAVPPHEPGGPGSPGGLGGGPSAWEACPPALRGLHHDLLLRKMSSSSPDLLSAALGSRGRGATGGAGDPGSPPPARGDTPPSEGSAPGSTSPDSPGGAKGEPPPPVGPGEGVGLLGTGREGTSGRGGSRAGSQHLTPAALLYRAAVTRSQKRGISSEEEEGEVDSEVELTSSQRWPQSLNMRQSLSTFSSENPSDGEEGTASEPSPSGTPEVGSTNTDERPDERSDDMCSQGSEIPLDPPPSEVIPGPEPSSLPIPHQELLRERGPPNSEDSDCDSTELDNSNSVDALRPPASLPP
Sequence of MYLK3 (human) (Q32MK0 whole entry, looked up): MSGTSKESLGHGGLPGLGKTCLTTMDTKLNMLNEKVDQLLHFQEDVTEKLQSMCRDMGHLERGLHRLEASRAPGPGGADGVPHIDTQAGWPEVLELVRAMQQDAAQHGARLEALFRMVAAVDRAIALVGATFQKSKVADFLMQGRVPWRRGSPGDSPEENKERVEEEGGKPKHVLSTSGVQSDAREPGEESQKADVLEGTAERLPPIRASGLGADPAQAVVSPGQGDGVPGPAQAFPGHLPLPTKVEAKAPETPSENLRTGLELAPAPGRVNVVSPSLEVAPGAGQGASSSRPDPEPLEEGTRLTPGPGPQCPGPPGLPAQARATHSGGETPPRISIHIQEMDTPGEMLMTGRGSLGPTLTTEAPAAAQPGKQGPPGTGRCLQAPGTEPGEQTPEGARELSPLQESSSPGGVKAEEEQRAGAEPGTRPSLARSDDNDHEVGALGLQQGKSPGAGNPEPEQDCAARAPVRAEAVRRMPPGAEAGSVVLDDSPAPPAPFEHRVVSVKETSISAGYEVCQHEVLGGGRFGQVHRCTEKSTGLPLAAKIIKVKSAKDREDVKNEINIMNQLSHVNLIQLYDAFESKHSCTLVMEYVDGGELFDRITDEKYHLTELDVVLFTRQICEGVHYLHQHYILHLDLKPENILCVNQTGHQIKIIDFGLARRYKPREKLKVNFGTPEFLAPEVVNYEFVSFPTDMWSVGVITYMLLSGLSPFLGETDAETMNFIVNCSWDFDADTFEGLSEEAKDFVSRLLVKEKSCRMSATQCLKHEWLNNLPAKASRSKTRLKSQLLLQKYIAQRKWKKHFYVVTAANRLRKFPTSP

Row | Compound | Kd [1] | Kd [2] | Kd [3]
1 | COCC(=O)NC/C=C/c1ccc2ncnc(Nc3ccc(Oc4ccc(C)nc4)c(C)c3)c2c1 | > 10 µM | > 10 µM | 
2 | CCOc1cc2ncc(C#N)c(Nc3ccc(F)c(Cl)c3)c2cc1NC(=O)/C=C/CN(C)C |  | > 10 µM | 
3 | NC(=O)c1ccc(-c2nc(-c3ccccn3)c(-c3ccc4c(c3)OCO4)[nH]2)cc1 | > 10 µM | > 10 µM | > 10 µM
4 | Oc1ccc(-c2nc(-c3ccc(F)cc3)c(-c3ccncc3)[nH]2)cc1 | > 10 µM | > 10 µM | > 10 µM
5 | Nc1nc(Nc2ccc(S(N)(=O)=O)cc2)nn1C(=O)c1c(F)cccc1F |  | > 10 µM | > 10 µM
